Assay [1] concerns a variety of test species. Put plainly: Pre-emergence herbicidal activity (Example 8a, Table 2). Type of assay: in vivo. Details: key: 0 = no damage to plant, 5 = total damage to plant. To be noted: application pre-emergence, rate 1000 g/ha, evaluated after 13 days. The method, boiled down: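 Pre-emergence spray, one day post-sowing; vehicle acetone/water (50:50) + 0.5% Tween 20, aqueous dilution. Glasshouse 24/16 °C, 14 h light, 65% RH, watering twice daily. Score at 13 d on 0–5 scale, 5 = total damage.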

The test system of assay [2] is a variety of test species. As to the kind of experiment: Post-emergence herbicidal activity (Example 8b, Table 3). Type of assay: in vivo. To be noted: application post-emergence, rate 1000 g/ha, evaluated after 13 days, scale 0-5; for Herbicidal damage score, ABUTH: Abutilon theophrasti; for Herbicidal damage score, ALOMY: Alopecurus myosuroides; for Herbicidal damage score, AMARE: Amaranthus retroflexus; for Herbicidal damage score, ECHCG: Echinochloa crus-galli; for Herbicidal damage score, SETFA: Setaria faberi; for Herbicidal damage score, ZEAMX: Zea mays. The method, boiled down: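 Pot-grown plants, 8 days after sowing, were sprayed with compound formulated in acetone/water (50:50) with 0.5% Tween 20. Glasshouse conditions 24/16° C day/night, 14 h light, 65% humidity; damage scored after 13 days on a 0 (none) to 5 (total) scale.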

On to `CC1=C(Cl)C(=O)N(c2cc(/C=C/C(C)(C)C)n(C)n2)C1O` (stereo not drawn) [Compound B11], for which, in assay [1], the “Pre-emergence herbicidal activity, damage score ABUTH” value is 2; the “Pre-emergence herbicidal activity, damage score ALOMY” value is listed as 2; the “Pre-emergence herbicidal activity, damage score AMARE” value stood at 4; the “Pre-emergence herbicidal activity, damage score ECHCG” value turned out to be 4. In assay [1], the “Pre-emergence herbicidal activity, damage score SETFA” value is 3 and the “Pre-emergence herbicidal activity, damage score ZEAMX” value is listed as 2. Moreover, in assay [2], the “Herbicidal damage score, ABUTH” value stood at 5; the “Herbicidal damage score, ALOMY” value stood at 3; the “Herbicidal damage score, AMARE” value turned out to be 5; the “Herbicidal damage score, ECHCG” value was 5. Moreover, in assay [2], the “Herbicidal damage score, SETFA” value came to 5 and the “Herbicidal damage score, ZEAMX” value is 1.

With `CC1=C(Br)C(=O)N(c2nn(C)c3c2CCC3(C)C)C1O` (stereo not drawn) [Compound N1], in assay [1], the “Pre-emergence herbicidal activity, damage score ABUTH” value came out at 5; the “Pre-emergence herbicidal activity, damage score ALOMY” value is 4; the “Pre-emergence herbicidal activity, damage score AMARE” value is 5; the “Pre-emergence herbicidal activity, damage score ECHCG” value stood at 4. Also, in assay [1], the “Pre-emergence herbicidal activity, damage score SETFA” value is given as 5 and the “Pre-emergence herbicidal activity, damage score ZEAMX” value stood at 4. Also, in assay [2], the “Herbicidal damage score, ABUTH” value was 5; the “Herbicidal damage score, ALOMY” value is 5; the “Herbicidal damage score, AMARE” value is on record as 5; the “Herbicidal damage score, ECHCG” value is 5. In assay [2], the “Herbicidal damage score, SETFA” value amounted to 5 and the “Herbicidal damage score, ZEAMX” value is 4.

With `CCC1=C(Cl)C(=O)N(c2ccn(C)n2)C1O` (stereo not drawn) [Compound B28], in assay [1], the “Pre-emergence herbicidal activity, damage score ABUTH” value is 0; the “Pre-emergence herbicidal activity, damage score ALOMY” value turned out to be 0; the “Pre-emergence herbicidal activity, damage score AMARE” value stood at 0; the “Pre-emergence herbicidal activity, damage score ECHCG” value amounted to 0. Moreover, in assay [1], the “Pre-emergence herbicidal activity, damage score SETFA” value is 0 and the “Pre-emergence herbicidal activity, damage score ZEAMX” value worked out at 0. In addition, in assay [2], the “Herbicidal damage score, ABUTH” value is 0; the “Herbicidal damage score, ALOMY” value was determined as 0; the “Herbicidal damage score, AMARE” value is 0; the “Herbicidal damage score, ECHCG” value amounted to 0. Besides, in assay [2], the “Herbicidal damage score, SETFA” value was 0 and the “Herbicidal damage score, ZEAMX” value was determined as 0.

For `CC1=C(Cl)C(=O)N(c2cc(Cl)n(C)n2)C1O` (stereo not drawn) [Compound B9], in assay [1], the “Pre-emergence herbicidal activity, damage score ABUTH” value turned out to be 4; the “Pre-emergence herbicidal activity, damage score ALOMY” value worked out at 3; the “Pre-emergence herbicidal activity, damage score AMARE” value amounted to 5; the “Pre-emergence herbicidal activity, damage score ECHCG” value is 4. Further, in assay [1], the “Pre-emergence herbicidal activity, damage score SETFA” value stood at 5 and the “Pre-emergence herbicidal activity, damage score ZEAMX” value was found to be 2. Besides, in assay [2], the “Herbicidal damage score, ABUTH” value is listed as 5; the “Herbicidal damage score, ALOMY” value amounted to 5; the “Herbicidal damage score, AMARE” value amounted to 5; the “Herbicidal damage score, ECHCG” value is reported as 5. Besides, in assay [2], the “Herbicidal damage score, SETFA” value is given as 5 and the “Herbicidal damage score, ZEAMX” value was found to be 5.

On to `CC(C)=Cc1cc(N2C(=O)C(Cl)=C(C)C2O)nn1C` (stereo not drawn) [Compound B7, 4-chloro-2-hydroxy-3-methyl-1-[1-methyl-5-(2-methylprop-1-enyl)pyrazol-3-yl]-2H-pyrrol-5-one], for which, in assay [1], the “Pre-emergence herbicidal activity, damage score ABUTH” value was 4; the “Pre-emergence herbicidal activity, damage score ALOMY” value is 2; the “Pre-emergence herbicidal activity, damage score AMARE” value stood at 4; the “Pre-emergence herbicidal activity, damage score ECHCG” value came to 4. Also, in assay [1], the “Pre-emergence herbicidal activity, damage score SETFA” value is 4 and the “Pre-emergence herbicidal activity, damage score ZEAMX” value worked out at 2. Besides, in assay [2], the “Herbicidal damage score, ABUTH” value was found to be 5; the “Herbicidal damage score, ALOMY” value is listed as 4; the “Herbicidal damage score, AMARE” value turned out to be 5; the “Herbicidal damage score, ECHCG” value is recorded as 5. Besides, in assay [2], the “Herbicidal damage score, SETFA” value is listed as 5 and the “Herbicidal damage score, ZEAMX” value stood at 2.

These data come from patent US9605004B2, “Chemical compounds” (SYNGENTA LIMITED, priority 2013, dated 2017).
